In PubChem BioAssay AID1259407 (Chemical Carcinogenesis Research Information System (CCRIS), 2018):
Activity calls are given as the source filed them. No rule for the calls is given here.

Tested on: CCRIS mutagenicity, Ames/micronucleus/aberration tests
Experiment: CCRIS mutagenicity studies
[1] = Test System: AMES SALMONELLA TYPHIMURIUM, Strain/Indicator: TA98, Metabolic Activation: NONE, Method: STANDARD PLATE
[2] = Test System: AMES SALMONELLA TYPHIMURIUM, Strain/Indicator: TA100, Metabolic Activation: NONE, Method: PREINCUBATION
[3] = Test System: AMES SALMONELLA TYPHIMURIUM, Strain/Indicator: TA100, Metabolic Activation: RAT, LIVER, S-9, AROCLOR 1254, Method: STANDARD PLATE
[4] = Test System: AMES SALMONELLA TYPHIMURIUM, Strain/Indicator: TA1535, Metabolic Activation: NONE, Method: STANDARD PLATE
[5] = Test System: AMES SALMONELLA TYPHIMURIUM, Strain/Indicator: TA1538, Metabolic Activation: NONE, Method: STANDARD PLATE
[6] = Test System: UDS RAT HEPATOCYTES, Strain/Indicator: THY INCORP, Metabolic Activation: NONE, Method: AUTORADIOGRAPHY
[7] = Test System: AMES SALMONELLA TYPHIMURIUM, Strain/Indicator: TA100, Metabolic Activation: NONE, Method: STANDARD PLATE
[8] = Test System: AMES SALMONELLA TYPHIMURIUM, Strain/Indicator: TA98, Metabolic Activation: RAT, LIVER, S-9, AROCLOR 1254, Method: STANDARD PLATE
[9] = Test System: AMES SALMONELLA TYPHIMURIUM, Strain/Indicator: TA1535, Metabolic Activation: RAT, LIVER, S-9, AROCLOR 1254, Method: STANDARD PLATE
[10] = Test System: AMES SALMONELLA TYPHIMURIUM, Strain/Indicator: TA1537, Metabolic Activation: NONE, Method: STANDARD PLATE
[11] = Test System: AMES SALMONELLA TYPHIMURIUM, Strain/Indicator: TA1537, Metabolic Activation: RAT, LIVER, S-9, AROCLOR 1254, Method: STANDARD PLATE

O=C1OC(O)C(C(Cl)Cl)=C1Cl (configuration not stated)
mutagenic call (Test System: AMES SALMONELLA TYPHIMURIUM, Strain/Indicator: RSJ100, Metabolic Activation: NONE, Method: PREINCUBATION): inactive; negative | mutagenic call (Test System: AMES SALMONELLA TYPHIMURIUM, Strain/Indicator: RSJ100, Metabolic Activation: RAT LIVER S-9, Method: PREINCUBATION): inactive; negative | mutagenic call (Test System: AMES SALMONELLA TYPHIMURIUM, Strain/Indicator: TA92, Metabolic Activation: NONE, Method: STANDARD PLATE): active; positive | mutagenic call (Test System: AMES SALMONELLA TYPHIMURIUM, Strain/Indicator: TA97, Metabolic Activation: NONE, Method: STANDARD PLATE): active; positive | mutagenic call (Test System: AMES SALMONELLA TYPHIMURIUM, Strain/Indicator: TA98, Metabolic Activation: NONE, Method: PREINCUBATION): active; positive | mutagenic call [1]: active; positive | mutagenic call (Test System: AMES SALMONELLA TYPHIMURIUM, Strain/Indicator: TA98, Metabolic Activation: RAT LIVER S-9, AROCLOR 1254, Method: STANDARD PLATE): inactive; negative | mutagenic call (Test System: AMES SALMONELLA TYPHIMURIUM, Strain/Indicator: TA98, Metabolic Activation: RAT LIVER S-9, Method: PREINCUBATION): active; positive | mutagenic call (Test System: AMES SALMONELLA TYPHIMURIUM, Strain/Indicator: TA98, Metabolic Activation: RAT, LIVER, S-9, PHENOBARBITAL AND 5,6-BENZOFLAVONE, Method: PREINCUBATION): inactive; negative | mutagenic call [2]: active; positive | mutagenic call (Test System: AMES SALMONELLA TYPHIMURIUM, Strain/Indicator: TA100, Metabolic Activation: RAT LIVER S-9, AROCLOR 1254, Method: STANDARD PLATE): inactive; negative | mutagenic call (Test System: AMES SALMONELLA TYPHIMURIUM, Strain/Indicator: TA100, Metabolic Activation: RAT LIVER S-9, Method: PREINCUBATION): inactive; negative | mutagenic call [3]: active; positive | mutagenic call (Test System: AMES SALMONELLA TYPHIMURIUM, Strain/Indicator: TA100, Metabolic Activation: RAT, LIVER, S-9, PHENOBARBITAL AND 5,6-BENZOFLAVONE, Method: PREINCUBATION): inactive; negative | mutagenic call (Test System: AMES SALMONELLA TYPHIMURIUM, Strain/Indicator: TA102, Metabolic Activation: NONE, Method: STANDARD PLATE): active; positive | mutagenic call [4]: active; positive | mutagenic call [5]: active; positive | mutagenic call (Test System: AMES SALMONELLA TYPHIMURIUM, Strain/Indicator: YG7112, Metabolic Activation: NONE, Method: PREINCUBATION): active; positive | mutagenic call (Test System: AMES SALMONELLA TYPHIMURIUM, Strain/Indicator: YG7113, Metabolic Activation: NONE, Method: PREINCUBATION): active; positive | mutagenic call (Test System: AMES SALMONELLA TYPHIMURIUM, Strain/Indicator: YG7119, Metabolic Activation: NONE, Method: PREINCUBATION): active; positive | mutagenic call (Test System: Ames Salmonella typhimurium, Strain/Indicator: TA100, Metabolic Activation: None, Method: Preincubation): active; positive | mutagenic call (Test System: Ames Salmonella typhimurium, Strain/Indicator: TA104, Metabolic Activation: None, Method: Plate incorporation): active; positive | mutagenic call (Test System: Ames Salmonella typhimurium, Strain/Indicator: TA1975P, Metabolic Activation: None, Method: Preincubation): active; positive (at higher doses) | mutagenic call (Test System: CHINESE HAMSTER OVARY, Strain/Indicator: CHO-KTL3 (HPRT)/6-THIOGUANINE, Metabolic Activation: NONE): active; positive | mutagenic call (Test System: CHINESE HAMSTER V-79, Strain/Indicator: V-79 (HGPRT), Metabolic Activation: NONE): inactive; negative | mutagenic call (Test System: E. COLI, Strain/Indicator: CL101P, Metabolic Activation: NONE, Method: PREINCUBATION): active; positive | mutagenic call (Test System: E. COLI, Strain/Indicator: CL102P, Metabolic Activation: NONE, Method: PREINCUBATION): active; positive | mutagenic call (Test System: E. COLI, Strain/Indicator: CL103P, Metabolic Activation: NONE, Method: PREINCUBATION): active; positive | mutagenic call (Test System: E. COLI, Strain/Indicator: CL104P, Metabolic Activation: NONE, Method: PREINCUBATION): active; positive | mutagenic call (Test System: E. COLI, Strain/Indicator: CL105P, Metabolic Activation: NONE, Method: PREINCUBATION): active; positive | mutagenic call (Test System: E. COLI, Strain/Indicator: CL106P, Metabolic Activation: NONE, Method: PREINCUBATION): inactive; negative | mutagenic call (Test System: E. COLI, Strain/Indicator: WP2, Metabolic Activation: NONE, Method: PREINCUBATION): inactive; negative | mutagenic call (Test System: E. COLI, Strain/Indicator: WP2 UVRA, Metabolic Activation: NONE, Method: PREINCUBATION): active; positive | mutagenic call (Test System: E. coli, Strain/Indicator: XL-1 Blue MRA P2 (Spi), Method: Standard plate): inactive; negative | mutagenic call (Test System: E. coli, Strain/Indicator: YG6020 (Gpt)/6-Thioguanine, Method: Standard plate): inactive; negative | mutagenic call (Test System: HUMAN H1A1V2 CELLS, Strain/Indicator: TK LOCUS, Metabolic Activation: NONE, Method: SUSPENSION/PLATE): active; positive | mutagenic call (Test System: HUMAN LYMPHOBLASTOID CELLS, Strain/Indicator: AHH-1 CELLS (TK+/TK-), Metabolic Activation: NONE, Method: SUSPENSION/PLATE): active; positive | mutagenic call (Test System: HUMAN LYMPHOBLASTOID CELLS, Strain/Indicator: MCL-5 CELLS (TK+/TK-), Metabolic Activation: NONE, Method: SUSPENSION/PLATE): active; positive | mutagenic call (Test System: MOUSE LYMPHOMA, Strain/Indicator: L5178Y (TK+/TK-), Metabolic Activation: NONE, Method: SUSPENSION/PLATE): active; positive | mutagenic call (Test System: UDS HUMAN HEPATOCYTES, Strain/Indicator: THY INCORP, Metabolic Activation: NONE, Method: AUTORADIOGRAPHY): active; positive | mutagenic call (Test System: UDS MOUSE HEPATOCYTES, Strain/Indicator: THY INCORP, Metabolic Activation: IN VIVO, Method: AUTORADIOGRAPHY): inactive; negative | mutagenic call (Test System: UDS MOUSE HEPATOCYTES, Strain/Indicator: THY INCORP, Metabolic Activation: NONE, Method: AUTORADIOGRAPHY): active; positive | mutagenic call [6]: active; positive | mutagenic call (Test System: UDS RAT HEPATOCYTES, Strain/Indicator: THYMIDINE INCORPORATION, Metabolic Activation: NONE, Method: AUTORADIOGRAPHY): active; positive

O=C1NC(=O)C(C(Cl)Cl)=C1Cl
mutagenic call [7]: active; positive

CCN(CC)c1ccc(N=Nc2ccc([N+](=O)[O-])cc2C#N)cc1
mutagenic call [1]: active; positive | mutagenic call [8]: active; positive | mutagenic call [7]: active; positive | mutagenic call [3]: active; positive | mutagenic call [4]: inactive; negative | mutagenic call [9]: inactive; negative | mutagenic call [10]: active; positive | mutagenic call [11]: active; positive | mutagenic call (Test System: CHINESE HAMSTER OVARY, Strain/Indicator: CHO (HGPRT)/6-THIOGUANINE, Metabolic Activation: NONE): inactive; negative | mutagenic call (Test System: CHINESE HAMSTER OVARY, Strain/Indicator: CHO (HGPRT)/6-THIOGUANINE, Metabolic Activation: RAT, LIVER, S-9, AROCLOR 1254): inactive; negative | mutagenic call [6]: inactive; negative

ONc1ccc(Oc2ccccc2)cc1
mutagenic call [1]: active; positive | mutagenic call [7]: active; positive

CCN(CC)c1ccc(-c2ccccc2)c(-c2ccccc2)c1N(CC)CC
mutagenic call [5]: active; positive | mutagenic call (Test System: AMES SALMONELLA TYPHIMURIUM, Strain/Indicator: TA1538, Metabolic Activation: RAT, LIVER, S-9, AROCLOR 1254, Method: STANDARD PLATE): active; positive

O=C(c1ccccc1)n1ncc(Cl)c(Cl)c1=O
mutagenic call [1]: inactive; negative | mutagenic call [8]: inactive; negative | mutagenic call [7]: inactive; negative | mutagenic call [3]: inactive; negative | mutagenic call [4]: inactive; negative | mutagenic call [9]: inactive; negative | mutagenic call [10]: inactive; negative | mutagenic call [11]: inactive; negative

NC(=O)N(CCC(=O)O)N=O
mutagenic call [2]: active; positive | mutagenic call (Test System: AMES SALMONELLA TYPHIMURIUM, Strain/Indicator: TA1535, Metabolic Activation: NONE, Method: PREINCUBATION): active; positive | mutagenic call (Test System: E. COLI B, Strain/Indicator: H/R30R, Metabolic Activation: NONE): active; positive | mutagenic call (Test System: E. COLI B, Strain/Indicator: HS30R, Metabolic Activation: NONE): active; positive
